pIC50: −log10 of the molar value. Where a name gives a salt, the structure may show the parent alone.
How the values were obtained:
[1] = system: N87 gastric tumor cell line; test: Methylene blue growth inhibition assay, N87; assay type: cell-based; details: Homo sapiens, 72 h; N87, 3 days; read-out: Cell Proliferation N87, IC50
Experimental: (§1) Human breast (BT474), head and neck (HN5) and gastric tumor (N87) cell lines were cultured in low glucose DMEM (Life Technologies 12320–032) containing 10% fetal bovine serum (FBS) at 37° C. in a humidified 10% CO2, 90% air incubator. The SV40 transformed human mammary epithelial cell line HB4a was transfected with either human H-ras cDNA (HB4a r4.2) or the human c-erbB2 cDNA (HB4a c5.2). The HB4a clones were cultured in RPMI containing 10% FBS, insulin (5 μg/ml), hydrocortisone (5 μg/ml), supplemented with the selection agent hygromycin B (50 μg/ml). Cells were harvested using trypsin/EDTA, counted using a haemocytometer, and plated in […] of the appropriate media, at the following densities, in a 96-well tissue culture plate (Falcon 3075): BT474 10,000 cells/well, HN5 3,000 cells/well, N87 10,000 cells/well, HB4a c5.2 3,000 cells/well, HB4a r4.2 3,000 cells/well. The next day, compounds were diluted in DMEM containing […] gentamicin, at twice the final required concentration, from 10 mM stock solutions in DMSO. […] of these dilutions were added to the […] of media currently on the cell plates. Medium containing 0.6% DMSO was added to control wells. Compounds diluted in DMEM were added to all cell lines, including the HB4a r4.2 and HB4a c5.2 cell lines. The final concentration of DMSO in all wells was 0.3%. Cells were incubated at 37° C., 10% CO2 for 3 days. Medium was removed by aspiration. Cell biomass was estimated by staining cells with 100 μl per well methylene blue (Sigma M9140, 0.5% in 50:50 ethanol:water), and incubation at room temperature for at least 30 minutes. Stain was removed, and the plates rinsed under a gentle stream of water, and air-dried. To release stain from the cells 100 μl of solubilization solution was added (1% N-lauroyl sarcosine, Sodium salt, Sigma L5125, in PBS), and plates were shaken gently for about 30 minutes. Optical density at 620 nm was measured on a microplate reader. Percent inhibition of cell growth was calculated relative to vehicle treated control wells. Concentration of compound that inhibits 50% of cell growth (IC50) was interpolated using nonlinear regression (Levenberg-Marquardt) and the equation, y=Vmax*(1−(x/(K+x)))+Y2, where “K” was equal to the IC50.

[2] = system: HB4a c5.2 (HB4a transfected with human c-erbB2 cDNA); test: Methylene blue growth inhibition assay, HB4a erbB2; assay type: cell-based; details: 72 h, HB4a c5.2, 3 days, read-out: Cell Proliferation HB4a erbB2, IC50
Experimental: as §1

c-erbB-2 = target: T1, c-erbB-2 (Homo sapiens, UniProt P04626); test: Substrate phosphorylation assay, erbB2, assay (b) (SPA, 33P-ATP); assay type: biochemical; details: Tables 1A and 1B
T1 construct: baculovirus expressed, recombinant constructs of the intracellular domains of c-erbB-2 and c-erbB-4; made in house
From the text: (§2) The substrate phosphorylation assays use baculovirus expressed, recombinant constructs of the intracellular domains of c-erbB-2 and c-erbB-4 that are constitutively active and EGFr isolated from solubilised A431 cell membranes. The method measures the ability of the isolated enzymes to catalyse the transfer of the g-phosphate from ATP onto tyrosine residues in a biotinylated synthetic peptide (Biotin-[…]. Substrate phosphorylation was detected following either of the following two procedures: a.) c-ErbB-2, c-ErbB4 or EGFr were incubated for 30 minutes, at room temperature, with 10 mM MnCl2, 10 mM ATP, 5 mM peptide, and test compound (diluted from a 5 mM stock in DMSO, final DMSO concentration is 2%) in 40 mM HEPES buffer, pH 7.4. The reaction was stopped by the addition of EDTA (final concentration 0.15 mM) and a sample was transferred to a streptavidin-coated 96-well plate. The plate was washed and the level of phosphotyrosine on the peptide was determined using a Europium-labelled antiphosphotyrosine antibody and quantified with a time-resolved fluorescence technique. b.) ErbB2 was incubated for 50 minutes at room temperature with 15 mM MnCl2, 2 mM ATP, 0.25 mCi [γ-^33P] ATP/well, 5 mM peptide substrate, and test compound (diluted from a 10 mM stock in DMSO, final DMSO concentration is 2%) in 50 mM MOPS pH 7.2. The reaction was terminated by the addition of […] of PBS containing 2.5 mg/ml streptavidin-coated SPA beads (Amersham Inc.), 50 mM ATP, 10 mM EDTA and 0.1% TX-100. The microtitre plates were sealed and SPA beads were allowed to settle for at least six hours. The SPA signal was measured using a Packard Topcount 96-well plate scintillation counter (Packard Instrument Co., Meriden, Conn.).

[3] = target: T2, EGFr isolated from solubilised A431 cell membranes (Homo sapiens, UniProt P00533); test: Substrate phosphorylation assay, EGF-r, assay (a) (time-resolved fluorescence); assay type: biochemical
T2 construct: EGFr isolated from solubilised A431 cell membranes; endogenous in cells; host or cells: A431 cell membranes (solubilised)
From the text: as §2

[4] = system: BT474 breast tumor cell line; test: Methylene blue growth inhibition assay, BT474; assay type: cell-based; details: Homo sapiens, BT-474, 72 h; BT474, 3 days; read-out: Cell Proliferation BT474, IC50
Experimental: as §1

[5] = system: HB4a r4.2 (HB4a transfected with human H-ras cDNA); test: Methylene blue growth inhibition assay, HB4a ras; assay type: cell-based; details: 72 h, HB4a r4.2, 3 days, read-out: Cell Proliferation HB4a ras, IC50
Experimental: as §1

[6] = system: HN5 head and neck tumor cell line; test: Methylene blue growth inhibition assay, HN5; assay type: cell-based; details: Homo sapiens, 72 h; HN5, 3 days; read-out: Cell Proliferation HN5, IC50
Experimental: as §1

[7] = Major metabolites: liver S-9 homogenate incubation, LC-MS metabolite identification; assay type: in vitro ADME, Sprague Dawley rat and human; details: liver S-9 (rat, human), 10 μM, 60 min, 37° C.
Experimental: Liver S-9 homogenates (5 mg/mL protein concentration) from prepared pooled male Sprague Dawley rat livers and pooled human livers (XenoTech, LLC, Kansas City, Kans.) were incubated in 96-well polypropylene plates with representative examples selected from examples 1 to 40 (10 μM) in a total volume of 0.5 mL. Stock solutions of these compounds were prepared in DMSO at a concentration of 1 mM to maintain a <1% final DMSO concentration for each reaction. Enzymatic incubations contained cofactors (5.71 mM NADPH, 7.14 mM glucose-6-phosphate, 7.14 mM UDPGA, 47.1 mM potassium chloride, and 11.4 mM magnesium chloride in 0.1 M potassium phosphate buffer, pH 7.4). Control samples were aspirated from the reaction samples at time zero and placed immediately into 2 volumes of ice-chilled acetonitrile. Sample reaction plates were incubated for 60 min in a shaker incubator maintained at 37° C. supplied with O2. Reactions were terminated by addition of 2 volumes of ice-chilled acetonitrile. All samples were vortexed and centrifuged at 2000×g for 10 min. The supernatant was removed and analyzed by LC-MS. The metabolite identification work was done by using reversed-phase HPLC coupled with ion-trap mass spectroscopy.

T2 sequence (P00533 25-1210): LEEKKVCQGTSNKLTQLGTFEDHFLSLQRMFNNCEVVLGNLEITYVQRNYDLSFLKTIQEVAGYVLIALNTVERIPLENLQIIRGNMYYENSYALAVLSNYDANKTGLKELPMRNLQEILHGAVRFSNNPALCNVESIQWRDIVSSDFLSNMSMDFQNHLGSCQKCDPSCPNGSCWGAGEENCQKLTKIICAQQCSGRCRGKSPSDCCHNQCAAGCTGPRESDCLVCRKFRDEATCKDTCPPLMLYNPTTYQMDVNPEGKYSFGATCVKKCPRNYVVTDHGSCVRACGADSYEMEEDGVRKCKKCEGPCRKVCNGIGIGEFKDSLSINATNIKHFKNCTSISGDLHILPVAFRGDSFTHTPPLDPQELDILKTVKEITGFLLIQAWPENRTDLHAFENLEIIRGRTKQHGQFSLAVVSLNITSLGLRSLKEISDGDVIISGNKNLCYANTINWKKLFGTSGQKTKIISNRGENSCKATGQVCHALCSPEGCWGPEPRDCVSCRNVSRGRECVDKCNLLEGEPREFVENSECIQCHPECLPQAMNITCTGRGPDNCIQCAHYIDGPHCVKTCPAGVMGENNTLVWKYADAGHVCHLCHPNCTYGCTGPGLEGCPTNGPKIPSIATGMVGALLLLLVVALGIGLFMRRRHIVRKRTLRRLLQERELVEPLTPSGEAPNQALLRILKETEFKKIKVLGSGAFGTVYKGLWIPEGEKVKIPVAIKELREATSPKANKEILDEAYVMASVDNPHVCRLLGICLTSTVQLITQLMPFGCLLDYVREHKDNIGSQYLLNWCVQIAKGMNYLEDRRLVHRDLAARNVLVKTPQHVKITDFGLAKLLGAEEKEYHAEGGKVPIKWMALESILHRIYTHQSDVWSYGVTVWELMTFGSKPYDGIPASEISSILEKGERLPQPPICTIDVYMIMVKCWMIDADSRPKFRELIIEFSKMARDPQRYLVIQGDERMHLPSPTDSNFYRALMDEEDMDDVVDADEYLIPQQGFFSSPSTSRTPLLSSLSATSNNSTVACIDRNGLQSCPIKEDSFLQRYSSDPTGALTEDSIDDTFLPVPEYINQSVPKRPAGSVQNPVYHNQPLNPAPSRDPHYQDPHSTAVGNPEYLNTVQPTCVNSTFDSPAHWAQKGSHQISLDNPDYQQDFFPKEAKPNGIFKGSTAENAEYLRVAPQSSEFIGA
T1 sequence (P04626 676-1255 limits assumed): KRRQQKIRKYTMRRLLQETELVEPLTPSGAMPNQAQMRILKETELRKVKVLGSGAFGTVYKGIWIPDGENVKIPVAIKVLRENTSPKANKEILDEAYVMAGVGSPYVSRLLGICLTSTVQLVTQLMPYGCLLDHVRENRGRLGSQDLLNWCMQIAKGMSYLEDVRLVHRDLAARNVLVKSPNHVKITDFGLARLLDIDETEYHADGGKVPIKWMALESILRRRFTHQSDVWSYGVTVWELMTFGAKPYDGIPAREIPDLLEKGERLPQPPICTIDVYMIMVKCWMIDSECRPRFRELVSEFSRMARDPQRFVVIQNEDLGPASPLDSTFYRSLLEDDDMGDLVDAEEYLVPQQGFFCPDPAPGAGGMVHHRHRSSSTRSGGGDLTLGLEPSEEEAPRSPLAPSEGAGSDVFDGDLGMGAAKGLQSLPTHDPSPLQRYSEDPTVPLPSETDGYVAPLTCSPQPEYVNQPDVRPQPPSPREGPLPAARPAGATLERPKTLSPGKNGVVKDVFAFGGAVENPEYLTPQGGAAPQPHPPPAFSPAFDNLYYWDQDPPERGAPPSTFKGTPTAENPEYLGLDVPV

Row | SMILES | pIC50 [1] | pIC50 (c-erbB-2) | pIC50 [3] | pIC50 [4] | pIC50 [6] | identified as a major metabolite of N-[4-(benzyloxy)phenyl]-6-[4-({[2-(methanesulphonyl)ethyl]amino}methyl)-2-furyl]-4-quinazolinamine (Example 11) [7] | pIC50 [2] | pIC50 [5]
1 | CS(=O)(=O)CCNCc1cccc(-c2cc3c(Nc4ccc(OCc5ccccc5)cc4)ncnc3cn2)c1 [Example 4, (4-Benzyloxy-phenyl)-(6-(3-((2-methanesulphonyl-ethylamino)-methyl)-phenyl)-pyrido[3,4-d]pyrimidin-4-yl)-amine dihydrochloride] | > 5.30 | 6.00 to 7.00 | > 7.00 | > 5.30 | > 5.30 | – | > 5.30 | < 4.30
2 | CS(=O)(=O)CCNCc1nc(-c2ccc3ncnc(Nc4ccc(OCc5ccccc5)cc4)c3c2)cs1 [Example 7, (4-Benzyloxy-phenyl)-(6-(2-((2-methanesulphonyl-ethylamino)-methyl)-thiazol-4-yl)-quinazolin-4-yl)-amine dihydrochloride] | > 5.30 | > 7.00 | > 7.00 | > 5.30 | > 5.30 | – | > 5.30 | 4.60 to 5.30
3 | CS(=O)(=O)CCNCc1ccc(-c2cc3c(Nc4ccc(OCc5ccccc5)cc4)ncnc3cc2F)o1 [Example 34, N-[4-(Benzyloxy)phenyl]-7-fluoro-6-[5-({[2-(methanesulphonyl)ethyl]amino}methyl)-2-furyl]-4-quinazolinamine] | > 5.30 | > 7.00 | – | > 5.30 | > 5.30 | – | > 5.30 | < 4.30
4 | CS(=O)(=O)CCNCc1ccc(-c2ccc3ncnc(Nc4ccc(OCc5ccccc5)c(C(F)(F)F)c4)c3c2)o1 [Example 37] | > 5.30 | > 7.00 | – | > 5.30 | > 5.30 | – | > 5.30 | 4.30 to 4.60
5 | NCc1coc(-c2ccc3ncnc(Nc4ccc(OCc5ccccc5)cc4)c3c2)c1 [N-[4-(Benzyloxy)phenyl]-6-[4-(aminomethyl)-2-furyl]-4-quinazolinamine] | – | – | – | – | – | identified as a major metabolite | – | –

The next lines start with results.

Row | pIC50 [1] | pIC50 (c-erbB-2) | pIC50 [3] | pIC50 [4] | pIC50 [6] | identified as a major metabolite of N-[4-(benzyloxy)phenyl]-6-[4-({[2-(methanesulphonyl)ethyl]amino}methyl)-2-furyl]-4-quinazolinamine (Example 11) [7] | SMILES | pIC50 [2] | pIC50 [5]
6 | > 5.30 | > 7.00 | > 7.00 | > 5.30 | > 5.30 | – | CS(=O)(=O)CCNCc1ccc(-c2cc3c(Nc4ccc(OCc5ccc(F)cc5)cc4)ncnc3cn2)o1 [Example 1, (4-(4-Fluorobenzyloxy)-phenyl)-(6-(5-((2-methanesulphonyl-ethylamino)methyl)-furan-2-yl)-pyrido[3,4-d]pyrimidin-4-yl)-amine dihydrochloride] | > 5.30 | 4.30 to 4.60
7 | > 5.30 | > 7.00 | > 7.00 | > 5.30 | > 5.30 | – | CS(=O)(=O)CCNCc1ccc(-c2cc3c(Nc4ccc(OCc5cccc(F)c5)cc4)ncnc3cn2)o1 [Example 2, (4-(3-Fluorobenzyloxy)-phenyl)-(6-(5-((2-methanesulphonyl-ethylamino)methyl)-furan-2-yl)-pyrido[3,4-d]pyrimidin-4-yl)-amine dihydrochloride] | > 5.30 | 4.30 to 4.60
8 | > 5.30 | > 7.00 | > 7.00 | > 5.30 | > 5.30 | – | CS(=O)(=O)CCNCc1ccc(-c2cc3c(Nc4ccc(S(=O)(=O)c5ccccc5)cc4)ncnc3cn2)o1 [Example 3, (4-Benzenesulphonyl-phenyl)-(6-(5-((2-methanesulphonyl-ethylamino)-methyl)-furan-2-yl)-pyrido[3,4-d]pyrimidin-4-yl)-amine dihydrochloride] | > 5.30 | 4.30 to 4.60
9 | > 5.30 | > 7.00 | > 7.00 | > 5.30 | > 5.30 | – | CS(=O)(=O)CCNCc1ccc(-c2ccc3ncnc(Nc4ccc(OCc5ccccc5)cc4)c3c2)o1 [Example 5, (4-Benzyloxyphenyl)-(6-(5-((2-methanesulphonyl-ethylamino)-methyl)-furan-2-yl)-quinazolin-4-yl)-amine dihydrochloride] | > 5.30 | < 4.30
10 | > 5.30 | > 7.00 | – | > 5.30 | > 5.30 | – | CS(=O)(=O)CCNCc1ccc(-c2cc3c(Nc4ccc5c(cnn5Cc5ccccc5)c4)ncnc3cc2F)o1 [Example 35] | > 5.30 | 4.30 to 4.60
11 | 4.60 to 5.30 | > 7.00 | – | 4.60 to 5.30 | 4.60 to 5.30 | – | CS(=O)(=O)CCNCc1ccc(-c2cc3c(Nc4ccc(S(=O)(=O)c5ccccc5)cc4)ncnc3cc2F)o1 [Example 36, N-[4-(Phenylsulphonyl)phenyl]-7-fluoro-6-[5-({[2-(methanesulphonyl)ethyl]amino]methyl)-2-furyl]-4-quinazolinamine] | 4.60 to 5.30 | < 4.30
